{"source": "patent US20070271620A1", "about": "“Animal model for type II diabetes mellitus and Syndrome X and methods and uses thereof” (priority 2005, published 2007)", "key": {"[1]": {"system": "cross-bred pigs (Yorkshire×Landrace)", "assay": "6,6-2H-glucose tracer kinetics (fasting Ra glucose, hepatic glucose production, whole body glucose uptake) in STZ diabetic pigs", "type": "in vivo, pig", "details": "130 mg STZ/kg", "procedure": "Protocol 1: fasting hepatic glucose production and whole body glucose uptake were studied with 6,6-^2H-glucose infusion in five normal and five STZ (130 mg/kg) diabetic pigs.\nProtocol 2: insulin-mediated hepatic glucose production and whole body glucose uptake were studied with the hyperinsulinemic (1 or 2 mU/kg/minute) euglycemic clamp technique in combination with 6,6-^2H-glucose infusion in six normal and seven STZ (130 mg/kg) diabetic pigs.\nAfter overnight fasting, a 6,6-^2H-glucose solution was administered as a prime—(72 mg) continuous (1.2 mg/minute) infusion for three hours in normal pigs. In diabetic pigs, 6,6-^2H-glucose was given as an adjusted prime— (216 mg) continuous (3.6 mg/minute) infusion for three hours (Koopmans et al., 1991). Isotopic steady-state conditions were achieved within 90 minutes after initiation of the tracer infusion and steady-state calculations were carried out during the last hour of the tracer infusion (t=120, 135, 150, 165 and 180 minutes). […]\nBlood samples for determination of 6,6-^2H-glucose enrichment, glucose and insulin were collected in heparinized tubes (150 USP. U. Lithium Heparin, 10 mL Venoject, Terumo, Leuven, Belgium) and immediately chilled at 0° C. on ice and centrifuged at 4° C. for ten minutes at 3000 rpm. […] Selected ion monitoring, data acquisition and quantitative calculations were performed using the HP Chemstation software. Glucose concentration was determined using the internal standard method (xylose was added as internal standard). The internal standard was monitored at m/z 145. Glucose was monitored at m/z 187 for glucose and m/z 189 for d2-glucose. Glucose enrichments were calculated by dividing the area of the m/z 189 peak and the m/z 187 peak and correcting for natural enrichments. Isotopic enrichment was calculated as tracer-to-tracee ratio after subtracting the isotopic enrichment of a background plasma sample. An aliquot of the 6,6-^2H-glucose infusate was analyzed for the isotope concentration to calculate the actual infusion rate for each infusion experiment. […]"}, "[2]": {"system": "cross-bred pigs (Yorkshire×Landrace)", "assay": "Induction of diabetes by streptozotocin infusion in pigs: fasting plasma glucose, food intake, urinary glucose and ketones", "type": "in vivo, pig", "procedure": "Experimental protocols describing the management, surgical procedures, and animal care were reviewed and approved by the ASG-Lelystad Animal Care and Use Committee (Lelystad, NL). Thirty-six cross-bred pigs (Yorkshire×Landrace) of approximately 30 kg BW at surgery were used in this study. Two weeks before surgery, the pigs were housed in metabolism cages (1.15×1.35 m) and adapted to the fight/dark cycle and the feeding regimen. Lights were on and off at 05:00 and 22:00 hours, respectively. Ambient room temperature was 20° C.\nSTZ (Pharmacia & Upjohn Company, Kalamazoo, Mich., USA) was dissolved in saline (1 g/10 mL) and administrated to pigs via the jugular vein by a continuous infusion over 30 minutes. STZ treatment (110, 130 or 150 mg/kg) was initiated four to five hours after the morning meal. During the first three days after STZ treatment, food was offered ad libitum in order to avoid hypoglycemia (Gäbel et al., 1985; Grussner et al., 1993). Over the following four days, the food was offered still ad libitum but now from 06:00 to 7:00 and from 15:00 to 16:00 hours to evaluate the food intake capacity in relation to 24-hour urinary glucose excretion of diabetic pigs. This was done first, to be sure that diabetic pigs consume their meals at the iso-energetic level of 1045 kJ ME/kg BW^0.75 per day and second, to underline the importance of iso-energetic feeding when 24-hour urinary glucose excretion is used as one of the parameters to quantify the efficacy of metformin in diabetic pigs. On day 8 post-STZ treatment, pigs were fed on a restricted and iso-energetic level of 1045 kJ ME/kg BW^0.75 per day throughout the study.\nPlasma insulin concentration was measured using a Delfia assay (test kit No. B080-1101 by Perkin Elmer Life Sciences, trust by Wallac Oy, Turku, Finland). This specific pig insulin assay was validated using pig insulin standards. Plasma and urine glucose concentrations were analyzed enzymically on an autoanalyzer of Radiometer (ABL and AML, Copenhagen, Denmark). Urine was collected in buckets containing 0.5 grams Halamid-d (sodium-p-toluenesulfonchloramide, Akzo Nobel Chemicals, Amersfoort, NL) to prevent microbial breakdown of glucose. Urine volume was registered over a given interval in order to calculate the rate of urinary glucose excretion. Urine samples (0.5 mL) were stored at −20° C. for later glucose analyses. Ketones (acetoacetic acid) were determined in fresh urine by a reagent strip test (Ketostix, Bayer Diagnostics, Mijdrecht, NL)."}}, "note": "“And” between values parts separate entries of the source, which are not always exact repeats. Equal values may be shown once."}
{"smiles": "CN(N=O)C(=O)N[C@H]1C(O)O[C@H](CO)[C@@H](O)[C@@H]1O", "note": "(mixture of isomers) [STZ, streptozotocin]", "values": [{"measurement": "Fasting Ra glucose compared to normal pigs", "setting": "[1]", "result": "approximately two-fold greater"}, {"measurement": "Insulin-inhibited hepatic glucose production versus normal pigs", "setting": "[1]", "result": "two-fold greater"}, {"measurement": "Insulin-stimulated whole body glucose uptake versus normal pigs", "setting": "[1]", "result": "three-fold lower"}, {"measurement": "Pigs with overnight fasting plasma glucose <10 mmol/L (no fasting hyperglycemia)", "setting": "[2]; STZ 110 mg/kg BW, one week post STZ", "result": "two of six"}, {"measurement": "Diabetic state", "setting": "[2]; STZ 130 mg/kg", "result": "non-ketotic, moderately dyslipidemic, developed severe insulin resistance for glucose metabolism, maintained growth without insulin therapy"}, {"measurement": "Pigs with fasting hyperglycemia (>10 mmol/L)", "setting": "[2]; STZ 130 mg/kg", "result": "20 of 23"}, {"measurement": "Pigs with overnight fasting plasma glucose <10 mmol/L", "setting": "[2]; STZ 130 mg/kg BW, one week post STZ", "result": "three of 23"}, {"measurement": "Overnight fasting plasma glucose", "setting": "[2]; STZ 150 mg/kg BW, all six pigs, one week post STZ", "result": "> 20", "unit": "mmol/L"}, {"measurement": "Diabetic state", "setting": "[2]; STZ 150 mg/kg, all pigs", "result": "clear hyperglycemic, hypoinsulinemic, and ketotic diabetic state"}, {"measurement": "Fasting urinary glucose excretion (factual)", "setting": "[2]; STZ diabetic pigs fasted overnight, urine collected for eight hours", "result": "2.3 ± 0.2 mg/kg/min and 2.3 mg/kg/min"}, {"measurement": "Ketones in urine", "setting": "[2]; STZ dose of 110 and 130 mg/kg, trace = 0.5 mmol/L", "result": "no or trace"}, {"measurement": "Predicted fasting urinary glucose excretion", "setting": "[2]; from intercept of linear regression and average body weight", "result": 2.6, "unit": "mg/kg/min"}, {"measurement": "Fasting 24-hour urinary glucose excretion (intercept of regression)", "setting": "[2]; linear regression y=0.33x+141", "result": 141, "unit": "g per day"}]}
